Values joined by “and” are separate entries in the source; they are usually repeats but may differ in a detail not shown here. Equal values may be shown once.
Key:
Assay in all cases: PDSP GPCR panel primary binding assays at 10 μM
[1] = biological target: T1, cloned human or rodent CNS receptors, channels, and transporters (PDSP panel) (Homo sapiens, UniProt P08912); settings: M5, primary assay
T1 construct: expressed in transfected cells
T1 sequence (P08912 1-532): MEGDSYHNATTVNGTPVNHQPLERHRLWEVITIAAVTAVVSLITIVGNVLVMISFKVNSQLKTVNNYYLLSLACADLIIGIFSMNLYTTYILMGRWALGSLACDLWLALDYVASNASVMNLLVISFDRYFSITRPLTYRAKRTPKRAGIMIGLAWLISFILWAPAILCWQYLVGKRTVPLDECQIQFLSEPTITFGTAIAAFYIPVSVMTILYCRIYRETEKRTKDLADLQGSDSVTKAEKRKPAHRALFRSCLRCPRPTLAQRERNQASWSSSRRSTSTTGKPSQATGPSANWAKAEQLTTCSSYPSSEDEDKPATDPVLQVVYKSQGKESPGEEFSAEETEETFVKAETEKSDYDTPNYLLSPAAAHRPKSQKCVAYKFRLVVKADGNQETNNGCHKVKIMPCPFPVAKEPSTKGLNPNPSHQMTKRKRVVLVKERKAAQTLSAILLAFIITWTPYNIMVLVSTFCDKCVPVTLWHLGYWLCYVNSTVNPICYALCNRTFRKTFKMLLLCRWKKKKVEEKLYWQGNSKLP
In short: (§1)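 Radioligand displacement at cloned human or rodent CNS targets: 46–47 primary binding assays run in quadruplicate at 10 μM. Targets where the compound displaced an average of >50% of radiolabeled standard ligand went to secondary binding in 11-point dose-response, in triplicate; none run for H3, PBR or GABAA.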

[2] = biological target: T2, cloned human or rodent CNS receptors, channels, and transporters (PDSP panel) (Homo sapiens, UniProt P14416); settings: D2, primary assay
T2 construct: expressed in transfected cells
T2 sequence (P14416 whole entry): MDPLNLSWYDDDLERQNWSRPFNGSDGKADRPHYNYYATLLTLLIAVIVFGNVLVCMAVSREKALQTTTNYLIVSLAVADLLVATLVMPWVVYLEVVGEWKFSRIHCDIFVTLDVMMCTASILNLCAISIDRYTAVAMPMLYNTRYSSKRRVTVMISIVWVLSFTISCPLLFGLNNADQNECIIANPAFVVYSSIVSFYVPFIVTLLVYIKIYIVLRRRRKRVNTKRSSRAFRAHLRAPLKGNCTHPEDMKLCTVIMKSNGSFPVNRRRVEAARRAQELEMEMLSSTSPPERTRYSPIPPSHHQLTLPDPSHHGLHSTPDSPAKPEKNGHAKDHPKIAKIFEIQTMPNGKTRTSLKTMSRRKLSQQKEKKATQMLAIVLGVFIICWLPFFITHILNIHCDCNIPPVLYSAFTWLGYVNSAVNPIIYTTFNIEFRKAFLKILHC
In short: as §1

[3] = biological target: T3, cloned human or rodent CNS receptors, channels, and transporters (PDSP panel) (Homo sapiens, UniProt P20309); settings: M3, primary assay
T3 construct: expressed in transfected cells
T3 sequence (P20309 whole entry): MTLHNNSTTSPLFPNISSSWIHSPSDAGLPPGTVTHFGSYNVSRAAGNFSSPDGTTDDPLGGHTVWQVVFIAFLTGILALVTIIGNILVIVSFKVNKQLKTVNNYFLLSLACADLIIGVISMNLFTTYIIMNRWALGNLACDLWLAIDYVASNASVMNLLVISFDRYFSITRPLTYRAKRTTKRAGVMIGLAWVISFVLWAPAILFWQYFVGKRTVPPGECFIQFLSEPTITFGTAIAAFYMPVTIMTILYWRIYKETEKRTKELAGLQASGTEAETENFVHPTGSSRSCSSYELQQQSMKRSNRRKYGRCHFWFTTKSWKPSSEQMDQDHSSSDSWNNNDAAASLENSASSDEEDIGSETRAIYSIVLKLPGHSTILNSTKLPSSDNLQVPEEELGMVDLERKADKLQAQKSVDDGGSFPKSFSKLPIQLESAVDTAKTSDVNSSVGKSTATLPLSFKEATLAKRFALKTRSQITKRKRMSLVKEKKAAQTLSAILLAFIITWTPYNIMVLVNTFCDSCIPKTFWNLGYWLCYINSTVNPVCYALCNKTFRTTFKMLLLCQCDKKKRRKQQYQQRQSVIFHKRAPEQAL
In short: as §1

[4] = biological target: T4, cloned human or rodent CNS receptors, channels, and transporters (PDSP panel) (Homo sapiens, UniProt P28566); settings: 5-HT1E, primary assay
T4 construct: expressed in transfected cells
T4 sequence (P28566 whole entry): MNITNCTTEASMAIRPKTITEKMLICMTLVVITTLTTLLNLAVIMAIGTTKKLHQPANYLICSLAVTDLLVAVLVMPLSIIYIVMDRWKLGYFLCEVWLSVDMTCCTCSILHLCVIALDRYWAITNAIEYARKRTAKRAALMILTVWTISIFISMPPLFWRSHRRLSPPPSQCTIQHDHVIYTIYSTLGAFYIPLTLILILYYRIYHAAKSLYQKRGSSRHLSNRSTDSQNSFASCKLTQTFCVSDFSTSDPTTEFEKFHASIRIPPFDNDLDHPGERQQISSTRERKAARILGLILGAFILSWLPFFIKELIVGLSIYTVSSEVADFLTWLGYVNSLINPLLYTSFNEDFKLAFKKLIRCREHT
In short: as §1

[5] = biological target: T5, cloned human or rodent CNS receptors, channels, and transporters (PDSP panel) (Homo sapiens, UniProt P35367); settings: H1, primary assay
T5 construct: expressed in transfected cells
T5 sequence (P35367 whole entry): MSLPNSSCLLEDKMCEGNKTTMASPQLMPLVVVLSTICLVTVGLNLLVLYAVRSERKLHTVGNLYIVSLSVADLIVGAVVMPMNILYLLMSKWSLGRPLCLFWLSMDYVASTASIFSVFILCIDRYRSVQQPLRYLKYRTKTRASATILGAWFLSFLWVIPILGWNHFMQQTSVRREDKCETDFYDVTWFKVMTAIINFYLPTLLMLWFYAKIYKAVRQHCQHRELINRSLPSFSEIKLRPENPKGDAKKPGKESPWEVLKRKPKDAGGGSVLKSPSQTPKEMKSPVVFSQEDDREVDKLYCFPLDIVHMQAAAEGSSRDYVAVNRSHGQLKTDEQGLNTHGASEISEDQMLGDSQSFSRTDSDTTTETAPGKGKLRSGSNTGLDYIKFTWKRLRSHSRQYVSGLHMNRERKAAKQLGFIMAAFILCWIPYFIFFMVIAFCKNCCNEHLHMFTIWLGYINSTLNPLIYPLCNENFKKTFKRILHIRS
In short: as §1

[6] = biological target: T6, cloned human or rodent CNS receptors, channels, and transporters (PDSP panel) (Homo sapiens, UniProt P35372); settings: MOR, primary assay
T6 construct: expressed in transfected cells
T6 sequence (P35372 whole entry): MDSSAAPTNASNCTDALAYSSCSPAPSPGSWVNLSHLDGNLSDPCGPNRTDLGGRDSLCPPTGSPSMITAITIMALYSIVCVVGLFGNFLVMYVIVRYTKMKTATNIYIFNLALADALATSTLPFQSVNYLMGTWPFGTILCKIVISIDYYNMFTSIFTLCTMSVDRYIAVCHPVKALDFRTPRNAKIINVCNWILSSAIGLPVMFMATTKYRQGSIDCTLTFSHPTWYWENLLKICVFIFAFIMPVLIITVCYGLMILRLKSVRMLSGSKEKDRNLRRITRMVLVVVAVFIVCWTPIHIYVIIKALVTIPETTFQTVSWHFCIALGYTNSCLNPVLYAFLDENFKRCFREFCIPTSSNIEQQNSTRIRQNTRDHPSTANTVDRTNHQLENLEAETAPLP
In short: as §1

[7] = biological target: T7, cloned human or rodent CNS receptors, channels, and transporters (PDSP panel) (Homo sapiens, UniProt Q01959); settings: DAT, primary assay
T7 construct: expressed in transfected cells
T7 sequence (Q01959 whole entry): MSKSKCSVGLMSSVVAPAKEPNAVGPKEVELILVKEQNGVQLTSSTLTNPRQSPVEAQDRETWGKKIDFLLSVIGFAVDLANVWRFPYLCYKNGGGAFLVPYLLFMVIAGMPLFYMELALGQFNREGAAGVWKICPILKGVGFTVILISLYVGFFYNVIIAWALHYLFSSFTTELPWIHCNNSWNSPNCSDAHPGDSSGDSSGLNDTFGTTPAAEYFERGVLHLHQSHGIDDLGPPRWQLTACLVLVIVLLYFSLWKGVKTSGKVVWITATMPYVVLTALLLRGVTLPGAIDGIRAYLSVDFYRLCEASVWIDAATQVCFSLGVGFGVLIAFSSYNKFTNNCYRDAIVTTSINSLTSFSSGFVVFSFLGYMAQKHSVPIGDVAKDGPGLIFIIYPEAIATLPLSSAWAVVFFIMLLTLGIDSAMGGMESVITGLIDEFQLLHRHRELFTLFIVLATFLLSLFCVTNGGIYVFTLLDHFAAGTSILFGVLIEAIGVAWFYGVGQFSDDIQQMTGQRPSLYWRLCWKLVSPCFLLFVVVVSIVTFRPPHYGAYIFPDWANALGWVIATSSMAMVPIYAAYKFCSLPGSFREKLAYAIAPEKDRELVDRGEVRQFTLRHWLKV
In short: as §1

[8] = system: cloned human or rodent CNS receptors, channels, and transporters (PDSP panel); settings: primary assay; for Mean %: mean inhibition; for Inhibition 1: replicate 1; for Inhibition 2: replicate 2; for Inhibition 3: replicate 3; for Inhibition 4: replicate 4
In short: as §1

CC(=O)N1CCC(NC(=O)NC23CC4CC(CC(C4)C2)C3)CC1 [UNC10302683A, AR9281]
Mean % ([1]; mean inhibition): -4.97% | Inhibition 1 ([1]; replicate 1): 0.06% | Inhibition 2 ([1]; replicate 2): -4.77% | Inhibition 3 ([1]; replicate 3): -10.3% | Inhibition 4 ([1]; replicate 4): -4.87% | Mean % ([2]; mean inhibition): -5.85% | Inhibition 1 ([2]; replicate 1): -4.63% | Inhibition 2 ([2]; replicate 2): -2.98% | Inhibition 3 ([2]; replicate 3): -11.83% | Inhibition 4 ([2]; replicate 4): -3.95% | Mean % ([3]; mean inhibition): -3.62% | Inhibition 1 ([3]; replicate 1): -3% | Inhibition 2 ([3]; replicate 2): -3.76% | Inhibition 3 ([3]; replicate 3): 2.67% | Inhibition 4 ([3]; replicate 4): -10.4% | Mean % ([4]; mean inhibition): -2.2% | Inhibition 1 ([4]; replicate 1): 8.11% | Inhibition 2 ([4]; replicate 2): -12.87% | Inhibition 3 ([4]; replicate 3): -6.96% | Inhibition 4 ([4]; replicate 4): 2.94% | Mean % ([5]; mean inhibition): 76.51% | Inhibition 1 ([5]; replicate 1): 98.85% | Inhibition 2 ([5]; replicate 2): 86% | Inhibition 3 ([5]; replicate 3): 68.77% | Inhibition 4 ([5]; replicate 4): 52.43% | Mean % ([6]; mean inhibition): 5.26% | Inhibition 1 ([6]; replicate 1): 2.55% | Inhibition 2 ([6]; replicate 2): 12.43% | Inhibition 3 ([6]; replicate 3): 4.76% | Inhibition 4 ([6]; replicate 4): 1.31% | Mean % ([7]; mean inhibition): 71.25% | Inhibition 1 ([7]; replicate 1): 78.11% | Inhibition 2 ([7]; replicate 2): 65.9% | Inhibition 3 ([7]; replicate 3): 74.33% | Inhibition 4 ([7]; replicate 4): 66.66% | Mean % ([8]; Alpha1A): -5.99% | Inhibition 1 ([8]; Alpha1A): 5.7% | Inhibition 2 ([8]; Alpha1A): -8.88% | Inhibition 3 ([8]; Alpha1A): -13.37% | Inhibition 4 ([8]; Alpha1A): -7.39% | Mean % ([8]; Alpha2A): -4.95% | Inhibition 1 ([8]; Alpha2A): 1.83% | Inhibition 2 ([8]; Alpha2A): 1.33% | Inhibition 3 ([8]; Alpha2A): -3.6% | Inhibition 4 ([8]; Alpha2A): -19.37% | Mean % ([8]; Alpha2C): -1.59% | Inhibition 1 ([8]; Alpha2C): 8.16% | Inhibition 2 ([8]; Alpha2C): -7.23% | Inhibition 3 ([8]; Alpha2C): -5.47% | Inhibition 4 ([8]; Alpha2C): -1.81% | Mean % ([8]; BZP Rat Brain Site): -1.68% | Inhibition 1 ([8]; BZP Rat Brain Site): -9.6% | Inhibition 2 ([8]; BZP Rat Brain Site): -7.42% | Inhibition 3 ([8]; BZP Rat Brain Site): 1.02% | Inhibition 4 ([8]; BZP Rat Brain Site): 9.27% | Mean % ([8]; DOR): -7.7% | Inhibition 1 ([8]; DOR): -16.42% | Inhibition 2 ([8]; DOR): -2.69% | Inhibition 3 ([8]; DOR): 0.93% | Inhibition 4 ([8]; DOR): -12.63% | Inhibition 1 ([8]; GABAA): 12.11% and 21.01% | Inhibition 2 ([8]; GABAA): 4.71% and -10.34% | Inhibition 3 ([8]; GABAA): 1.76% and -2.77% | Inhibition 4 ([8]; GABAA): 5.45% and -49.8% | Mean % ([8]; H3): 8.09% | Inhibition 1 ([8]; H3): 9.84% | Inhibition 2 ([8]; H3): -10.86% | Inhibition 3 ([8]; H3): 12.17% | Inhibition 4 ([8]; H3): 21.2% | Mean % ([8]; H4): -2.1% | Inhibition 1 ([8]; H4): -0.42% | Inhibition 2 ([8]; H4): -2.58% | Inhibition 3 ([8]; H4): -25.38% | Inhibition 4 ([8]; H4): 19.98% | Mean % ([8]; Sigma 1): 8.41% | Mean % ([8]; Sigma 2): -5.79%

Reference: article PMC9005681, “Use of AD Informer Set compounds to explore validity of novel targets in Alzheimer's disease pathology” (Alzheimer's & Dementia : Translational Research & Clinical …, 2022)
